In patent US12691070B2, “Cationic lipids and preparation method thereof” (RiboX Therapeutics HK Limited, priority 2023, dated 2026):

Columns and labels:
[1] = LNP size and polydispersity index (PDI) by dynamic light scattering; assay type: physicochemical; conditions: for Size: in nm (unit assumed)
Procedure, shortened: (§1)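 Ribogreen fluorescence with and without Triton X-100 gave encapsulation as 100% − (intact/lysed) signal; DLS size, PDI and zeta potential measured on a Zetasizer. Particles: 50:10:38.5:1.5 lipid mix, luciferase circRNA or mRNA, lipid:nucleotide 15 or 6, microfluidic assembly at pH 4.5, PBS-dialyzed.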

Hep G2 cells [2] = assay: In vitro toxicity (CellTiter-Glo cell viability), Hep G2; assay type: cell-based;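 also: percent of untreated cells luminescence signal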
Procedure, shortened: (§2)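 Viability after a 72 h incubation with 1 μg/mL RNA-LNP formulations was assessed luminometrically using CellTiter-Glo.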

RAW 264.7 cells [3] = assay: In vitro toxicity (CellTiter-Glo cell viability), RAW 264.7; assay type: cell-based;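 also: percent of untreated cells luminescence signal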
Procedure, shortened: as §2

[4] = RNA encapsulation efficacy by Quant-IT Ribogreen kit; assay type: physicochemical; conditions: for Encapsulation Efficiency %: LNP with cirRNA (SEQ ID NO: 1)
Procedure, shortened: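 Dynamic light scattering and zeta potential measurements were run on PBS-dialyzed LNPs, which had been formed by microfluidic mixing at 12 ml/min with final lipid at 1.5 mM to 6 mM. RNA content and percent encapsulation were determined by Ribogreen with and without Triton X-100.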

RAW 264.7 cells [5] = assay: In vitro expression of firefly-luciferase, RAW 264.7; assay type: cell-based
Procedure, shortened: (§3)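 First, cells were dosed with RNA lipid nanoparticles encoding firefly luciferase (100 ng/mL). Second, at 72 h they were washed and lysed. Third, lysate luciferase activity was read with a luminometer.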

Hep G2 cells [6] = assay: In vitro expression of firefly-luciferase, Hep G2; assay type: cell-based
Procedure, shortened: as §3

[7] = LNP zeta potential (Zetasizer); assay type: physicochemical
Procedure, shortened: as §1

BALB/C mice = assay: In vivo expression, whole-body luminescence (IVIS)
Procedure: 6-8 week old, female BALB/C mice were injected with 0.05 mg*kg-1 of RNA-LNPs encoding for firefly-luciferase by intravenous injection. At 6 hours post injection, animals were intraperitoneally injected with 15 mg/ml of Luciferin substrate and whole-body luminescence was determined by a bioluminescent in vivo imaging system (IVIS).

[8] = cirRNA (SEQ ID NO: 1) LNPs, Hep G2 cells
[9] = cirRNA (SEQ ID NO: 1) LNPs, RAW 264.7 cells
[10] = cirRNA (SEQ ID NO: 1) LNPs, firefly-luciferase luminescence, RAW 264.7 cells
[11] = cirRNA (SEQ ID NO: 1) LNPs, firefly-luciferase luminescence, Hep G2 cells
[12] = cirRNA (SEQ ID NO: 1) LNPs, BALB/C mice
[13] = mRNA (SEQ ID NO: 2) LNP, 1 μg/mL, 72 hours post transfection
[14] = mRNA (SEQ ID NO: 2) LNP, 100 ng/mL, 72 hours post transfection, luciferase activity

Structure (SMILES) | PDI ([1]; LNP with cirRNA (SEQ ID NO: 1)) | Size ([1]; LNP with cirRNA (SEQ ID NO: 1)) | In vitro Viability HepG2 (Hep G2 cells [2]; [8]) | In vitro Viability RAW (RAW 264.7 cells [3]; [9]) | Encapsulation Efficiency % [4] | In vitro Expression RAW (RAW 264.7 cells [5]; [10]) | In vitro Expression HepG2 (Hep G2 cells [6]; [11]) | Zeta (mV) ([7]; LNP with cirRNA (SEQ ID NO: 1)) | In vivo Expression (Whole Body) (BALB/C mice; [12]) | PDI ([1]; LNP with mRNA (SEQ ID NO: 2)) | Size ([1]; LNP with mRNA (SEQ ID NO: 2)) | In vitro Viability HepG2 (Hep G2 cells [2]; [13]) | In vitro Viability RAW (RAW 264.7 cells [3]; [13]) | Encapsulation Efficiency ([4]; LNP with mRNA (SEQ ID NO: 2)) | In vitro Expression RAW (RAW 264.7 cells [5]; [14]) | In vitro Expression HepG2 (Hep G2 cells [6]; [14]) | Zeta (mV) ([7]; LNP with mRNA (SEQ ID NO: 2)) | In vivo Expression (Whole Body) (BALB/C mice; mRNA (SEQ ID NO: 2) LNP, 0.05 mg*kg-1 intravenous, 6 hours post injection)
CCCCCCCC/C=C\CCCCCCCCN(CCCCCCCCOC(=O)C(CCCCCC)CCCCCCCC)CCOC(=O)NCCCN(CC)CC (centres unmarked) [Lipid 213] | 0.2952 | 114.2 | 74% | 90% | 94% | 2.06E+04 | 6.40E+06 | 13.22 mV | 2.11E+06 | – | – | – | – | – | – | – | – | –
CCCCC/C=C\CCOC(=O)CCCCCN(CCCCCC(=O)OCC(CCCCCCCC)CCCCCCCCCC)CCOC(=O)NCCN1CCCC1 (centres unmarked) [Lipid 244] | 0.3577 | 87.4 | 94% | 90% | 96% | 9.56E+02 | 3.62E+06 | −0.164 mV | 3.95E+07 | – | – | – | – | – | – | – | – | –
CCCCC/C=C\CCOC(=O)CCCCCN(CCCCCCCCOC(=O)C(CCCCCC)CCCCCCCC)CCOC(=O)NCCN1CCN(C)CC1 (centres unmarked) [Lipid 187] | 0.277 | 65.71 | 93% | 0% | 92% | 7.47E+04 | 3.27E+05 | 8.983 mV | 2.29E+06 | – | – | – | – | – | – | – | – | –
CCCCC/C=C\C/C=C\CCCCCCCCN(CCCCCCCC/C=C\C/C=C\CCCCC)CCOC(=O)NCc1ncc[nH]1 [Lipid 39, 2-(di((9Z,12Z)-octadeca-9,12-dien-1-yl)amino)ethyl ((1H-imidazol-2-yl)methyl)carbamate] | 0.07 | 169.5 | 90% | 96% | 91% | 2.58E+03 | 8.11E+02 | −3.335 mV | 1.15E+04 | – | – | – | – | – | – | – | – | –
CCCCCCCCCCCOC(=O)CCCCCN(CCCCCCCCOC(=O)C(CCCCCC)CCCCCCCC)CCOC(=O)NCc1ncc[nH]1 (centres unmarked) [Lipid 221] | 0.1852 | 65.7 | 87% | 83% | 91% | 5.03E+05 | 2.82E+05 | −1.368 mV | 1.79E+07 | – | – | – | – | – | – | – | – | –
CCCCCCCCCCC(CCCCCCCC)COC(=O)CCCCCN(CCCCCC(=O)OCC(CCCCCCCC)CCCCCCCCCC)CCCOC(=O)NCc1ncc[nH]1 (centres unmarked) [Lipid 365] | 0.1303 | 72.69 | 109% | 88% | 92% | 3.87E+04 | 3.17E+05 | −2.341 mV | 1.32E+08 | – | – | – | – | – | – | – | – | –
CCCCC/C=C\C/C=C\CCCCCCCCN(CCCCCCCC/C=C\C/C=C\CCCCC)CCOC(=O)[C@@H](N)Cc1c[nH]cn1 [Lipid B, reference compound] | 0.2623 | 93.61 | – | – | 88% | – | 8.71E+05 | 3.811 mV | – | 0.2472 | 80.28 | 97% | 92% | 86.87% | 1.32E+05 | 4.21E+05 | 0.02157 mV | 3.42E+08
